{"source": "patent US8507698B2", "about": "“Artemisinin derivatives for the treatment of melanoma” (Lachifarma S.R.L. Laboratorio Chimico Farmaceutico Salentino, priority 2007, dated 2013)", "origin": "cited, not measured here", "test_system": "cell line of oral cancer (YD-10B)", "conditions": "read-out: CI50 (the source's name)"}
{"molecule": "CC(=O)O[C@H]1C(=O)[C@@]2(C)[C@H]([C@H](OC(=O)c3ccccc3)[C@]3(O)C[C@H](OC(=O)[C@H](O)[C@@H](NC(=O)c4ccccc4)c4ccccc4)C(C)=C1C3(C)C)[C@]1(OC(C)=O)CO[C@@H]1C[C@@H]2O", "note": "[paclitaxel]", "values": [{"measurement": "IC50", "value": 13.1, "unit": "µM"}]}
